Experiments:
Assay in all cases: Test for adequate preservation (European Pharmacopea), 1,2-diols and 1,2-diol mixtures in O/W emulsion
Format in all cases: cell-based
[1] = system: Aspergillus niger ATCC 16404; settings: for germ count A. niger: 3% diol(s) in O/W emulsion; for reduction in the number of colony forming units (CFU) to the 0 value: Aspergillus niger, dosage of 3%, 28 days
Procedure: A test for adequate preservation was carried out in accordance with the European Pharmacopea. The test thus consists of the contamination of the formulation, if possible in its final ratio, with a prescribed inoculum of suitable microorganisms, storage of the inoculated formulation at a specific temperature, taking of samples from the vessel at specific intervals and determination of the number of microorganisms in the samples taken in this way. The preserving properties are adequate if, under the conditions of the test, there is a distinct reduction or optionally no increase in the germ count in the inoculated formulations after the prescribed times at the prescribed temperatures. Experimental details of the test procedure are described in the European Pharmacopea (ISBN 3-7692-2768-9; 2001 supplement to the 3rd Edition, page 421-422, chapter 5.1.3). The initial germ count (CFU/g; “0” value) was in the range of 240,000 to 300,000 in the various test series. For the tests for adequate preservation, (a) potentially synergistically active mixtures taken into account and (b), for comparison purposes, the corresponding unmixed 1,2-diols were incorporated in O/W emulsions. […] The variation in the total concentration of 1,2-diols or 1,2-diol mixtures in the O/W emulsions was compensated for by increasing or reducing the water content, so that otherwise identical formulations always comprised 100 parts by weight in total. […] The Kull equation enables the pure substances and the active compound mixtures prepared therefrom to be compared in respect of their antimicrobial activity. With this equation the so-called synergy index (SI), which is a measure for a synergistic activity, but also for a possible antagonistic activity, of a mixture having an antimicrobial action, is determined. A synergistic effect is evident if the SI value determined is less than 1. On the other hand, if an SI of precisely 1 is calculated, there is a pure additive effect of two substances having an antimicrobial action. In the case of an SI value greater than 1, on the other hand, there is a (frequently undesired) antagonistic effect.

[2] = system: Escherichia coli ATCC 8739; settings: 3% diol(s) in O/W emulsion
Procedure: (§1) A test for adequate preservation was carried out in accordance with the European Pharmacopea. The test thus consists of the contamination of the formulation, if possible in its final ratio, with a prescribed inoculum of suitable microorganisms, storage of the inoculated formulation at a specific temperature, taking of samples from the vessel at specific intervals and determination of the number of microorganisms in the samples taken in this way. The preserving properties are adequate if, under the conditions of the test, there is a distinct reduction or optionally no increase in the germ count in the inoculated formulations after the prescribed times at the prescribed temperatures. Experimental details of the test procedure are described in the European Pharmacopea (ISBN 3-7692-2768-9; 2001 supplement to the 3rd Edition, page 421-422, chapter 5.1.3). The initial germ count (CFU/g; “0” value) was in the range of 240,000 to 300,000 in the various test series. For the tests for adequate preservation, (a) potentially synergistically active mixtures taken into account and (b), for comparison purposes, the corresponding unmixed 1,2-diols were incorporated in O/W emulsions. […] The variation in the total concentration of 1,2-diols or 1,2-diol mixtures in the O/W emulsions was compensated for by increasing or reducing the water content, so that otherwise identical formulations always comprised 100 parts by weight in total.

[3] = system: Staphylococcus aureus ATCC 6538; settings: 3% diol(s) in O/W emulsion
Procedure: as §1

[4] = system: Pseudomonas aeruginosa ATCC 9027; settings: 3% diol(s) in O/W emulsion
Procedure: as §1

[5] = system: Candida albicans ATCC 10231; settings: 3% diol(s) in O/W emulsion
Procedure: as §1

What does the source list for CCCCCCCCC(O)CO (centres unmarked) [DE 3, 1,2-decanediol]?
germ count A. niger ([1]; 0′-count (initial germ count)): 250,000 CFU/ml; germ count A. niger ([1]; 24 h): 73,000 CFU/ml; germ count A. niger ([1]; 48 h): 160,000 CFU/ml; germ count A. niger ([1]; 4 d): 100,000 CFU/ml; germ count A. niger ([1]; 7 d): 100,000 CFU/ml; germ count A. niger ([1]; 14 d): 73,000 CFU/ml; germ count A. niger ([1]; 28 d): 73,000 CFU/ml; reduction in the number of colony forming units (CFU) to the 0 value [1]: did not enable a reduction in the number of colony forming units (CFU) to the desired 0 value; germ count E. coli ([2]; 0′-count (initial germ count)): 350,00 CFU/ml; germ count E. coli ([2]; 24 h): 0 CFU/ml; germ count E. coli ([2]; 48 h): 0 CFU/ml; germ count E. coli ([2]; 4 d): 0 CFU/ml; germ count E. coli ([2]; 7 d): 0 CFU/ml; germ count E. coli ([2]; 14 d): 0 CFU/ml; germ count E. coli ([2]; 28 d): 0 CFU/ml; germ count Staph. aureus ([3]; 0′-count (initial germ count)): 350,000 CFU/ml; germ count Staph. aureus ([3]; 24 h): 3,200 CFU/ml; germ count Staph. aureus ([3]; 48 h): 0 CFU/ml; germ count Staph. aureus ([3]; 7 d): 0 CFU/ml; germ count Staph. aureus ([3]; 14 d): 0 CFU/ml; germ count Staph. aureus ([3]; 28 d): 0 CFU/ml; germ count Ps. aeruginosa ([4]; 0′-count (initial germ count)): 360,000 CFU/ml; germ count Ps. aeruginosa ([4]; 24 h): 2,600 CFU/ml; germ count Ps. aeruginosa ([4]; 7 d): 20.0 mill; germ count Ps. aeruginosa ([4]; 14 d): 15.0 mill; germ count Ps. aeruginosa ([4]; 28 d): 11.8 mill; germ count C. albicans ([5]; 0′-count (initial germ count)): 320,000 CFU/ml; germ count C. albicans ([5]; 24 h): 3,500 CFU/ml; germ count C. albicans ([5]; 48 h): 0 CFU/ml; germ count C. albicans ([5]; 4 d): 0 CFU/ml; germ count C. albicans ([5]; 7 d): 0 CFU/ml; germ count C. albicans ([5]; 14 d): 0 CFU/ml; germ count C. albicans ([5]; 28 d): 0 CFU/ml

With CCCC(O)CO (centres unmarked) [PE3, 1,2-pentanediol] as the molecule, how does the “germ count A. niger” value ([1]; 0′-count (initial germ count)) read?
The value was 260,000 CFU/ml.

What about the “germ count A. niger” value ([1]; 24 h) of the same molecule?
Its value is 180,000 CFU/ml.

And the “germ count A. niger” value ([1]; 48 h)?
Its value is 180,000 CFU/ml.

And the “germ count A. niger” value ([1]; 4 d)?
Its value is 180,000 CFU/ml.

And the “germ count A. niger” value ([1]; 7 d)?
The value was 140,000 CFU/ml.

What about the “germ count A. niger” value ([1]; 14 d) of the same molecule?
The value was 140,000 CFU/ml.

What about the “germ count A. niger” value ([1]; 28 d) of the same molecule?
The value was 100,000 CFU/ml.

And the “reduction in the number of colony forming units (CFU) to the 0 value” [1]?
The value was “did not enable a reduction in the number of colony forming units (CFU) to the desired 0 value”.

And the “germ count E. coli” value ([2]; 0′-count (initial germ count))?
Its value is 300,000 CFU/ml.

And the “germ count E. coli” value ([2]; 24 h)?
Its value is 300,000 CFU/ml.

What about the “germ count E. coli” value ([2]; 48 h) of the same molecule?
The value was 145,000 CFU/ml.

And the “germ count E. coli” value ([2]; 4 d)?
The value was 100,000 CFU/ml.

And the “germ count E. coli” value ([2]; 7 d)?
Its value is 40,000 CFU/ml.

What about the “germ count E. coli” value ([2]; 14 d) of the same molecule?
The value was 500 CFU/ml.

What about the “germ count E. coli” value ([2]; 28 d) of the same molecule?
The value was 0 CFU/ml.

And the “germ count Staph. aureus” value ([3]; 0′-count (initial germ count))?
The value was 240,000 CFU/ml.

What about the “germ count Staph. aureus” value ([3]; 24 h) of the same molecule?
Its value is 100,000 CFU/ml.

What about the “germ count Staph. aureus” value ([3]; 48 h) of the same molecule?
Its value is 12,000 CFU/ml.

What about the “germ count Staph. aureus” value ([3]; 7 d) of the same molecule?
Its value is 0 CFU/ml.

What about the “germ count Staph. aureus” value ([3]; 14 d) of the same molecule?
The value was 0 CFU/ml.

And the “germ count Staph. aureus” value ([3]; 28 d)?
The value was 0 CFU/ml.

What about the “germ count Ps. aeruginosa” value ([4]; 0′-count (initial germ count)) of the same molecule?
Its value is 290,000 CFU/ml.

And the “germ count Ps. aeruginosa” value ([4]; 24 h)?
Its value is 145,000 CFU/ml.

What about the “germ count Ps. aeruginosa” value ([4]; 48 h) of the same molecule?
The value was 12,000 CFU/ml.

And the “germ count Ps. aeruginosa” value ([4]; 4 d)?
Its value is 0 CFU/ml.

What about the “germ count Ps. aeruginosa” value ([4]; 7 d) of the same molecule?
Its value is 0 CFU/ml.

What about the “germ count Ps. aeruginosa” value ([4]; 14 d) of the same molecule?
The value was 0 CFU/ml.

And the “germ count Ps. aeruginosa” value ([4]; 28 d)?
The value was 0 CFU/ml.

What about the “germ count C. albicans” value ([5]; 0′-count (initial germ count)) of the same molecule?
The value was 250,000 CFU/ml.

What about the “germ count C. albicans” value ([5]; 24 h) of the same molecule?
Its value is 245,000 CFU/ml.

What about the “germ count C. albicans” value ([5]; 48 h) of the same molecule?
The value was 73,000 CFU/ml.

What about the “germ count C. albicans” value ([5]; 4 d) of the same molecule?
The value was 28,000 CFU/ml.

What about the “germ count C. albicans” value ([5]; 7 d) of the same molecule?
Its value is 23,000 CFU/ml.

What about the “germ count C. albicans” value ([5]; 14 d) of the same molecule?
The value was under 100 CFU/ml.

And the “germ count C. albicans” value ([5]; 28 d)?
The value was 0 CFU/ml.

— patent US7582681B2, “Synergistic mixtures of 1,2-alkane diols” (Symrise GmbH & Co. KG, priority 2002, dated 2009)
